Experimental data from patent US9458092B2, “α-Substituted glycinamide derivative” (KISSEI PHARMACEUTICAL CO., LTD., priority 2013, dated 2016).

Assays:
[1] = biological target: T1, TRPM8 (Rattus norvegicus, UniProt Q8R455); settings: cited from earlier work
[2] = tested on: overactive bladder induced by acetic acid; experiment: Confirmation test of elongation action of micturition interval of overactive bladder induced by acetic acid; type: in vivo, female SD rats; settings: Rattus norvegicus, iv, interval before administration = 100%
Procedure: Urethane (sigma) was dissolved into pure water by 25% w/v, and female SD rats were anesthetized with 1.25 g/kg urethane by subcutaneous administration. Cannulae were placed in femoral vein and bladder, and the bladder cannula was connected to both a syringe pump and a pressure transducer. Detrusor overactivity was induced by intravesical infusion of 0.25% acetic acid in saline at a rate of 3.6 mL/h, and intravesical pressure was monitored via pressure transducer concurrently. Test compounds were dissolved into a mixture of dimethylacetamide and saline (20:80), and were administered via the femoral vein. When an average of the three micturition interval before administration was taken as 100%, an average of the three micturition interval after administration was calculated as Elongation of micturition interval (%) Dose and results are shown in tables 46 and 47.

[3] = biological target: T1, TRPM8; experiment: Confirmation test of inhibitory effects on icilin-induced wet-dog shakes; type: in vivo, female SD rats; set-up: test compounds were orally administered to female SD rats; from tissue; host or cells: whole animal (female SD rats), endogenous channel; settings: icilin 1 mg/kg i.p. after 1 hour, shakes counted for 5 minutes

T1 sequence (Q8R455 whole entry): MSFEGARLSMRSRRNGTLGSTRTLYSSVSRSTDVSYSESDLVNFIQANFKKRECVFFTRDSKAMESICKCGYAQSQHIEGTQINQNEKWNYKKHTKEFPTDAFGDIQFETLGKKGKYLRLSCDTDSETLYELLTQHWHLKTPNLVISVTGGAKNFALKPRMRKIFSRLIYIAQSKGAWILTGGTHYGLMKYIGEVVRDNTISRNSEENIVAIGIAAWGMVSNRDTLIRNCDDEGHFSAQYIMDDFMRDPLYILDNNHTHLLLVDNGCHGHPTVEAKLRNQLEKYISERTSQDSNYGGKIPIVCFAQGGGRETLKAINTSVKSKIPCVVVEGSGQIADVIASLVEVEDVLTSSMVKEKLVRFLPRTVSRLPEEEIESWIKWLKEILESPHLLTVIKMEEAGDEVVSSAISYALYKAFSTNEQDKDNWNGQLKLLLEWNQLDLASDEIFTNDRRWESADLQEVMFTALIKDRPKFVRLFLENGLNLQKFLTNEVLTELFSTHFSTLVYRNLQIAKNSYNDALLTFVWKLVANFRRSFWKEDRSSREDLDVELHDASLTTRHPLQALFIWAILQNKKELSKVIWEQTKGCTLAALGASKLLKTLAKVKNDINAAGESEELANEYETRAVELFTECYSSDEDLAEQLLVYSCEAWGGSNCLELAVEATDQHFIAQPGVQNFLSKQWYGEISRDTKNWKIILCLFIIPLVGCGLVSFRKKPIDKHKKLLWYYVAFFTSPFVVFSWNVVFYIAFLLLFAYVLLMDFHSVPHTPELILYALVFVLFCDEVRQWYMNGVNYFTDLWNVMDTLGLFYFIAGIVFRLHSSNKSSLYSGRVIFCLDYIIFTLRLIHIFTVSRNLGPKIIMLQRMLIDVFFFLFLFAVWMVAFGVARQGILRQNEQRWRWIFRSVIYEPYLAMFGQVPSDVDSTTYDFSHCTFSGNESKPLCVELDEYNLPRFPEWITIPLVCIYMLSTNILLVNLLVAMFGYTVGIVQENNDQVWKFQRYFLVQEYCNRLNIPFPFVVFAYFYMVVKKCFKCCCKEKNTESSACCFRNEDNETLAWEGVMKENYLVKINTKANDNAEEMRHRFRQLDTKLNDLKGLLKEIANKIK

Cc1cccc(COc2ccccc2C(=O)N(CCCN)Cc2cccs2)c1.Cl [AMTB, N-(3-aminopropyl)-2-{[(3-methylphenyl)methyl]oxy}-N-(2-thienylmethyl)benzamide hydrochloride]
frequency of rhythmic bladder contractions ([1]; anesthetized rats): suppresses
nociceptive reflex responses to bladder distension ([1]; anesthetized rats): suppresses
average blood pressure ([1]; rat, in vivo): decrease

NC(=O)[C@@H](c1ccccc1)N(C(=O)c1cncc(F)c1)[C@@H]1CCc2c(F)cc(Cl)cc21 [Example 2-86LP, N-[(R)-carbamoylphenylmethyl]-N-[(R)-6-chloro-4-fluoroindan-1-yl]-5-fluoronicotinamide]
response vs control in vivo at 1 mg/kg ([2]; 1 mg/kg/2 ml via the femoral vein): 145%
% inhibition of Wet-Dog Shake ([3]; dose 10 mg/kg orally): 73%

Cc1ncccc1C(=O)N([C@@H]1CCc2c(F)cc(F)cc21)[C@@H](C(N)=O)c1ccccc1 [Example 2-131LP, N-[(R)-carbamoylphenylmethyl]-N-[(R)-4,6-difluoroindan-1-yl]-2-methylnicotinamide]
response vs control in vivo at 1 mg/kg ([2]; 1 mg/kg/ml via the femoral vein): 162%
% inhibition of Wet-Dog Shake ([3]; dose 3 mg/kg orally): 100%
